Values quoted from earlier work in patent publication US20180193283A1, “TRANSDERMAL THERAPEUTIC SYSTEM CONTAINING ASENAPINE” (LTS LOHMANN Therapie-Systeme AG, priority 2016, published 2018).
Like-named read-outs stand apart in the source and are kept apart here.

How the values were obtained:
[1] = very common side effects

bioavailability (if ingested): < 2%
terminal disposition half-life (sublingual administration, therapeutic doses): ≥ 24 h
bioavailability (when taken sublingually): 35%
SMILES: CN1C[C@H]2c3ccccc3Oc3ccc(Cl)cc3[C@@H]2C1 (relative stereo) [asenapine, (3aRS,12bRS)-rel-5-chloro-2,3,3a,12b-tetrahydro-2-methyl-1H-dibenz[2,3:6,7]oxepino[4,5-c]pyrrole]
Somnolence and anxiety, frequency [1]: ≥ 10 % of the patients
